According to patent US4751295A, “Cephalosporin derivatives” (Bristol-Myers Company, priority 1986, dated 1988):
Values after ≈ are worked out from the molar mass of the structure shown. Like-named read-outs stand apart in the source and are kept apart here.

Tests used:
[1] = blood levels upon intramuscular administration to mice; format: in vivo; conditions: mouse, im, 20 mg/kg
Protocol: (§1) Table 2, below, gives the Protective Dose50 (PD50) in mice for a number of the compounds of Formula I against selected microorganisms. Table 3 gives blood levels of various compounds of Formula I upon intramuscular administration of the test compounds to mice at a dosage of 20 mg/kg.

[2] = tested on: Cephalothinresistant E. coli (3 strains) and Kl. pneumoniae (2 strains); assay: MIC, two-fold serial agar dilution, group (G-)-Ib; format: cell-based; conditions: Escherichia coli, read-out: Geometric Mean of MIC, (G-)-Ib, Mueller-Hinton agar; 5 strains
Protocol: (§2) In the primary evaluation of the compounds of this invention, the Minimum Inhibitory Concentrations (MIC's) of the compounds were determined by the two-fold serial agar dilution method in Mueller-Hinton agar against 32 strains of test organisms in six groups.
(G-)Ib: Cephalothinresistant E. coli (3 strains) and Kl. pneumoniae (2

[3] = tested on: Penicillinresistant S. aureus (5 strains); assay: MIC, two-fold serial agar dilution, group (G+)-Ib; format: cell-based; conditions: Staphylococcus aureus, read-out: Geometric Mean of MIC, (G+)-Ib
Protocol: as §2
(G+)Ib: Penicillinresistant S. aureus (5 strains)

S. aureus Smith = assay: Protective Dose50 in mice, S. aureus Smith; format: in vivo; conditions: for ED50: Staphylococcus aureus, read-out: PD50, S. aureus Smith
Protocol: as §1

E. coli Juhl = assay: Protective Dose50 in mice, E. coli Juhl; format: in vivo; conditions: Escherichia coli, read-out: PD50, E. coli Juhl
Protocol: as §1

[4] = tested on: Cephalothinsensitive E. coli (2 strains), Kl. pneumoniae (1 strain) and Pr. mirabilis (2 strains); assay: MIC, two-fold serial agar dilution, group (G-)-Ia; format: cell-based; conditions: Mueller-Hinton agar; 5 strains; read-out: Geometric Mean of MIC, (G-)-Ia
Protocol: as §2
(G+)Ia: Cephalothinsensitive E. coli (2 strains), Kl. pneumoniae (1
strain) and Pr. mirabilis (2 strains)

[5] = tested on: Penicillinsensitive S. aureus (5 strains); assay: MIC, two-fold serial agar dilution, group (G+)-Ia; format: cell-based; conditions: Staphylococcus aureus, read-out: Geometric Mean of MIC, (G+)-Ia
Protocol: as §2
(G+)Ia: Penicillinsensitive S. aureus (5 strains)

[6] = tested on: Ps. aeruginosa (7 strains); assay: MIC, two-fold serial agar dilution, group (G-)-III; format: cell-based; conditions: Pseudomonas aeruginosa, Mueller-Hinton agar, read-out: Geometric Mean of MIC, (G-)-III
Protocol: as §2
(G-)III: Ps. aeruginosa (7 strains)

[7] = tested on: M. morganii (1 strain), Ent. cloacae (2 strains) and Ser. marcescens (2 strains); assay: MIC, two-fold serial agar dilution, group (G-)-II; format: cell-based; conditions: Mueller-Hinton agar; 5 strains; read-out: Geometric Mean of MIC, (G-)-II
Protocol: as §2
(G-)II: M. morganii (1 strain), Ent. cloacae (2 strains) and Ser.

[8] = solubility of crystalline zwitterion in saline; format: physicochemical; conditions: crystalline zwitterion form
P. aeruginosa A9843A = assay: Protective Dose50 in mice, P. aeruginosa A9843A; format: in vivo; conditions: Pseudomonas aeruginosa, read-out: PD50, P. aeruginosa A9843A
Protocol: as §1

CON=C(C(=O)NC1C(=O)N2C(C(=O)[O-])=C(/C=C/C[n+]3ccsc3C)CSC12)c1nsc(N)n1 (stereo not drawn) [Compound I-1J, 7-[2-(5-Amino-1,2,4-thiadiazol-3-yl)-2-methoxyiminoacetamido]-3-[3-(2-methylthiazolio)-1-propen-1-yl]-3-cephem-4-carboxylate]
AUC [1]: 9700 ng·h/mL
Cmax [1]: 19000 ng/mL
half-life [1]: 16 min
MIC [2]: 0.076 µg/mL (≈ 0.146 µM)
MIC ([3]; Mueller-Hinton agar, 5 strains): 0.35 µg/mL (≈ 0.671 µM)
ED50 (S. aureus Smith): 0.35 mg/kg
ED50 (E. coli Juhl): 0.029 mg/kg
MIC [4]: 0.025 µg/mL (≈ 0.0479 µM)
MIC ([5]; Mueller-Hinton agar, 5 strains): 0.17 µg/mL (≈ 0.326 µM)
MIC [6]: 1.6 µg/mL (≈ 3.07 µM)
MIC [7]: 0.15 µg/mL (≈ 0.288 µM)

CON=C(C(=O)NC1C(=O)N2C(C(=O)[O-])=C(C=CC[n+]3ccc(C(=O)O)cc3)CSC12)c1nsc(N)n1 (stereo not drawn) [Compound I-1N, 7-[2-(5-Amino-1,2,4-thiadiazol-3-yl)-2-methoxyiminoacetamido]-3-[3-(4-carboxypyridinio)-1-propenyl]-3-cephem-4-carboxylate]
AUC [1]: 18000 ng·h/mL
Cmax [1]: 24000 ng/mL
half-life [1]: 19 min
MIC [2]: 0.066 µg/mL (≈ 0.121 µM)
MIC ([3]; Mueller-Hinton agar, 5 strains): 1.6 µg/mL (≈ 2.93 µM)
ED50 (S. aureus Smith): 2 mg/kg
MIC [4]: 0.013 µg/mL (≈ 0.0238 µM)
MIC ([5]; Mueller-Hinton agar, 5 strains): 1.2 µg/mL (≈ 2.2 µM)
MIC [6]: 5.7 µg/mL (≈ 10.4 µM)
MIC [7]: 0.3 µg/mL (≈ 0.55 µM)

CON=C(C(=O)NC1C(=O)N2C(C(=O)[O-])=C(/C=C/C[n+]3cccc(CO)c3)CSC12)c1nsc(N)n1 (stereo not drawn) [Compound I-1K, 7-[2-(5-Amino-1,2,4-thiadiazol-3-yl)-2-methoxyiminoacetamido]-3-[3-(3-hydroxymethylpyridinio)-1-propenyl]-3-cephem-4-carboxylate]
AUC [1]: 14000 ng·h/mL
Cmax [1]: 24000 ng/mL
half-life [1]: 14 min
MIC [2]: 0.044 µg/mL (≈ 0.0828 µM)
MIC ([3]; Mueller-Hinton agar, 5 strains): 0.8 µg/mL (≈ 1.5 µM)
ED50 (S. aureus Smith): 0.53 mg/kg
MIC [4]: 0.029 µg/mL (≈ 0.0546 µM)
MIC ([5]; Mueller-Hinton agar, 5 strains): 0.35 µg/mL (≈ 0.658 µM)
MIC [6]: 3.5 µg/mL (≈ 6.58 µM)
MIC [7]: 0.2 µg/mL (≈ 0.376 µM)

CON=C(C(=O)NC1C(=O)N2C(C(=O)[O-])=C(/C=C/C[n+]3ccc(C(N)=O)cc3)CSC12)c1nsc(N)n1 (stereo not drawn) [Compound I-1H, 7-[2-(5-Amino-1,2,4-thiadiazol-3-yl)-2-methoxyiminoacetamido]-3-[3-(4-carbamoylpyridinio)-1-propen-1-yl]-3-cephem-4-carboxylate]
AUC [1]: 14000 ng·h/mL
Cmax [1]: 23000 ng/mL
half-life [1]: 16 min
MIC [2]: 0.043 µg/mL (≈ 0.079 µM)
MIC ([3]; Mueller-Hinton agar, 5 strains): 0.4 µg/mL (≈ 0.735 µM)
solubility in water (in words) [8]: slightly soluble in water
solubility ([8]; in saline at 23° C.): 6000 µg/mL (≈ 11000 µM)
ED50 (S. aureus Smith): 0.39 mg/kg
ED50 (E. coli Juhl): 0.015 mg/kg
MIC [4]: 0.013 µg/mL (≈ 0.0239 µM)
MIC [5]: 0.2 µg/mL (≈ 0.367 µM)
ED50 (P. aeruginosa A9843A): 3.9 mg/kg
MIC [6]: 0.97 µg/mL (≈ 1.78 µM)
MIC [7]: 0.1 µg/mL (≈ 0.184 µM)

CON=C(C(=O)NC1C(=O)N2C(C(=O)[O-])=C(C=CC[n+]3ccccc3)CSC12)c1nsc(N)n1 (stereo not drawn) [Compound I-1B, 7-[2-(5-Amino-1,2,4-thiadiazol-3-yl)-2-methoxyiminoacetamido]-3-[3-pyridinio-1-propen-1-yl]-3-cephem-4-carboxylate]
AUC [1]: 11000 ng·h/mL
Cmax [1]: 17000 ng/mL
half-life [1]: 21 min
PD50, S. aureus Smith (S. aureus Smith): 0.65 mg/kg
ED50 (S. aureus Smith): 0.44 mg/kg
ED50 (P. aeruginosa A9843A): 7.7 mg/kg

CON=C(C(=O)NC1C(=O)N2C(C(=O)[O-])=C(/C=C/C[n+]3cccc(C(N)=O)c3)CSC12)c1nsc(N)n1 (stereo not drawn) [Compound I-1G, 7-[2-(5-Amino-1,2,4-thiadiazol-3-yl)-2-methoxyiminoacetamido]-3-[3-(3-carbamoylpyridinio)-1-propen-1-yl]-3-cephem-4-carboxylate]
MIC [2]: 0.033 µg/mL (≈ 0.0606 µM)
MIC ([3]; Mueller-Hinton agar, 5 strains): 0.35 µg/mL (≈ 0.643 µM)
ED50 (S. aureus Smith): 0.96 mg/kg
ED50 (E. coli Juhl): 0.021 mg/kg
MIC [4]: 0.0094 µg/mL (≈ 0.0173 µM)
MIC [5]: 0.2 µg/mL (≈ 0.367 µM)
ED50 (P. aeruginosa A9843A): 5.92 mg/kg
MIC [6]: 1.4 µg/mL (≈ 2.57 µM)
MIC [7]: 0.1 µg/mL (≈ 0.184 µM)

CNC(=O)c1cc[n+](C/C=C/C2=C(C(=O)[O-])N3C(=O)C(NC(=O)/C(=N\OC)c4nsc(N)n4)C3SC2)cc1 (stereo not drawn) [Compound I-1M, 7-[2-(5-Amino-1,2,4-thiadiazol-3-yl)-2-(Z)-methoxyiminoacetamido]-3-[3-(4-N-methylcarbamoylpyridinio)-1-propenyl]-3-cephem-4-carboxylate]
AUC [1]: 14000 ng·h/mL
Cmax [1]: 20000 ng/mL
half-life [1]: 23 min
MIC [2]: 0.1 µg/mL (≈ 0.179 µM)
MIC ([3]; Mueller-Hinton agar, 5 strains): 0.7 µg/mL (≈ 1.25 µM)
ED50 (S. aureus Smith): 0.96 mg/kg
MIC [4]: 0.029 µg/mL (≈ 0.0519 µM)
MIC ([5]; Mueller-Hinton agar, 5 strains): 0.35 µg/mL (≈ 0.627 µM)
MIC [6]: 2.3 µg/mL (≈ 4.12 µM)
MIC [7]: 0.17 µg/mL (≈ 0.304 µM)

C#CCON=C(C(=O)NC1C(=O)N2C(C(=O)[O-])=C(/C=C/C[n+]3ccc(C(N)=O)cc3)CSC12)c1nsc(N)n1 (stereo not drawn) [Compound I-4H, 7-[2-(5-Amino-1,2,4-thiadiazol-3-yl)-2-propargyloxyiminoacetamido]-3-[3-(4-carbamoylpyridinio)-1-propenyl]-3-cephem-4-carboxylate]
AUC [1]: 16000 ng·h/mL
Cmax [1]: 27000 ng/mL
half-life [1]: 22 min
MIC [2]: 0.11 µg/mL (≈ 0.193 µM)
MIC ([3]; Mueller-Hinton agar, 5 strains): 0.46 µg/mL (≈ 0.809 µM)
MIC [4]: 0.066 µg/mL (≈ 0.116 µM)
MIC ([5]; Mueller-Hinton agar, 5 strains): 0.26 µg/mL (≈ 0.457 µM)
MIC [6]: 2.6 µg/mL (≈ 4.57 µM)
MIC [7]: 0.6 µg/mL (≈ 1.06 µM)

CCO/N=C(\C(=O)NC1C(=O)N2C(C(=O)[O-])=C(C=CC[n+]3ccc(C(=O)O)cc3)CSC12)c1nsc(N)n1 (stereo not drawn) [Compound I-2N, 7-[2-(5-Amino-1,2,4-thiadiazol-3-yl)-2-(Z)-ethoxyiminoacetamido]-3-[3-(4-carboxypyridinio)-1-propenyl]-3-cephem-4-carboxylate]
AUC [1]: 12000 ng·h/mL
Cmax [1]: 22000 ng/mL
half-life [1]: 20 min
ED50 (S. aureus Smith): 5 mg/kg

CO/N=C(\C(=O)NC1C(=O)N2C(C(=O)[O-])=C(/C=C/C[n+]3cccc4c3CCC4)CSC12)c1nsc(N)n1 (stereo not drawn) [Compound I-1O, 7-[2-(5-Amino-1,2,4-thiadiazol-3-yl)-2-(Z)-methoxyiminoacetamido]-3-[3-(2,3-cyclopentenopyridinio)-1-propenyl]-3-cephem-4-carboxylate]
AUC [1]: 17000 ng·h/mL
Cmax [1]: 28000 ng/mL
half-life [1]: 32 min
MIC [2]: 0.033 µg/mL (≈ 0.0609 µM)
MIC ([3]; Mueller-Hinton agar, 5 strains): 0.35 µg/mL (≈ 0.646 µM)
ED50 (S. aureus Smith): 0.26 mg/kg
ED50 (E. coli Juhl): 0.17 mg/kg
MIC [4]: 0.029 µg/mL (≈ 0.0535 µM)
MIC ([5]; Mueller-Hinton agar, 5 strains): 0.17 µg/mL (≈ 0.314 µM)
MIC [6]: 14 µg/mL (≈ 25.8 µM)
MIC [7]: 0.11 µg/mL (≈ 0.203 µM)

CON=C(C(=O)NC1C(=O)N2C(C(=O)[O-])=C(C=CC[n+]3ccc4sc(N)nc4c3)CS[C@H]12)c1nsc(N)n1 (stereo partly drawn) [Compound I-1C, 7-[2-(5-Amino-1,2,4-thiadiazol-3-yl)-2-methoxyiminoacetamido]-3-[3-(2-amino-5-thiazolo[4,5-c]pyridinio)-1-propen-1-yl]-3-cephem-4-carboxylate]
AUC [1]: 18000 ng·h/mL
Cmax [1]: 21000 ng/mL
half-life [1]: 32 min
MIC [2]: 0.033 µg/mL (≈ 0.0575 µM)
MIC [3]: 0.2 µg/mL (≈ 0.349 µM)
ED50 (S. aureus Smith): 0.22 mg/kg
ED50 (E. coli Juhl): 0.013 mg/kg
MIC [4]: 0.0071 µg/mL (≈ 0.0124 µM)
MIC [5]: 0.1 µg/mL (≈ 0.174 µM)
MIC [6]: 3.8 µg/mL (≈ 6.62 µM)
MIC [7]: 0.087 µg/mL (≈ 0.152 µM)

NC(=O)c1cc[n+](C/C=C/C2=C(C(=O)[O-])N3C(=O)C(NC(=O)C(=NOC4CCCC4)c4nsc(N)n4)C3SC2)cc1 (stereo not drawn) [Compound I-5H, 7-[2-(5-Amino-1,2,4-thiadiazol-3-yl)-2-cyclopentyloxyiminoacetamido]-3-[3-(4-carbamoylpyridinio)-1-propenyl]-3-cephem-4-carboxylate]
AUC [1]: 18000 ng·h/mL
Cmax [1]: 22000 ng/mL
half-life [1]: 32 min
MIC [2]: 0.46 µg/mL (≈ 0.768 µM)
MIC ([3]; Mueller-Hinton agar, 5 strains): 0.4 µg/mL (≈ 0.668 µM)
MIC [4]: 0.2 µg/mL (≈ 0.334 µM)
MIC ([5]; Mueller-Hinton agar, 5 strains): 0.13 µg/mL (≈ 0.217 µM)
MIC [6]: 4.2 µg/mL (≈ 7.02 µM)
MIC [7]: 2.1 µg/mL (≈ 3.51 µM)
